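Test compounds were applied to cells in 96-well plates for 48 hours at 5 doses. TGI: total growth inhibition.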
Key:
Assay in all cases: NCI anticancer screen, dose series, 48 h
CAKI-1 renal = system: CAKI-1 renal
CCRF-CEM leukemia = system: CCRF-CEM leukemia
NCI-H522 lung = system: NCI-H522 lung
RPMI-8226 leukemia = system: RPMI-8226 leukemia
MOLT-4 leukemia = system: MOLT-4 leukemia
786-0 renal = system: 786-0 renal
UO-31 renal = system: UO-31 renal
SW-620 colon = system: SW-620 colon
HCT-116 colon = system: HCT-116 colon
SNB-78 CNS = system: SNB-78 CNS
M19-MEL melanoma = system: M19-MEL melanoma
MALME-3M melanoma = system: MALME-3M melanoma
SNB-19 CNS = system: SNB-19 CNS
UACC-257 melanoma = system: UACC-257 melanoma
A498 renal = system: A498 renal
ACHN renal = system: ACHN renal
A549 NSCLC = system: A549 NSCLC
OVCAR-8 ovarian = system: OVCAR-8 ovarian
LXFL 529 NSCLC = system: LXFL 529 NSCLC
RXF 393 renal = system: RXF 393 renal
M14 melanoma = system: M14 melanoma
SF-295 CNS = system: SF-295 CNS
OVCAR-5 ovarian = system: OVCAR-5 ovarian
LOX IMVI melanoma = system: LOX IMVI melanoma
KM20L2 colon = system: KM20L2 colon
HCC-2998 colon = system: HCC-2998 colon
HT29 colon = system: HT29 colon
HOP-62 NSCLC = system: HOP-62 NSCLC
UACC-62 melanoma = system: UACC-62 melanoma
K-562 leukemia = system: K-562 leukemia
SF-268 CNS = system: SF-268 CNS
U251 CNS = system: U251 CNS
SK-OV-3 ovarian = system: SK-OV-3 ovarian
SN12C renal = system: SN12C renal
OVCAR-4 ovarian = system: OVCAR-4 ovarian
EKVX NSCLC = system: EKVX NSCLC
SK-MEL-28 melanoma = system: SK-MEL-28 melanoma
COLO 205 colon = system: COLO 205 colon
SF-539 CNS = system: SF-539 CNS
DLD-1 colon = system: DLD-1 colon
HCT-15 colon = system: HCT-15 colon
XF 498 CNS = system: XF 498 CNS
HOP-92 NSCLC = system: HOP-92 NSCLC
NCI-H23 lung = system: NCI-H23 lung
NCI-H460 lung = system: NCI-H460 lung
TK-10 renal = system: TK-10 renal
SK-MEL-2 melanoma = system: SK-MEL-2 melanoma
KM12 colon = system: KM12 colon
DMS 114 small cell lung = system: DMS 114 small cell lung
SK-MEL-5 melanoma = system: SK-MEL-5 melanoma
HOP-18 NSCLC = system: HOP-18 NSCLC
DMS 273 small cell lung = system: DMS 273 small cell lung
IGROV1 ovarian = system: IGROV1 ovarian
OVCAR-3 ovarian = system: OVCAR-3 ovarian
SNB-75 CNS = system: SNB-75 CNS
NCI-H226 lung = system: NCI-H226 lung
HL-60(TB) leukemia = system: HL-60(TB) leukemia

## CCC12C[N+]3([O-])CCc4c([nH]c5ccccc45)C(C(=O)OC)(c4cc5c(cc4OC)N(C)C4C(O)(C(=O)OC)C(OC(C)=O)C6(CC)C=CCN7CCC54C76)CC(C3)C1O2 (centres undefined)
CAKI-1 renal
  TGI: 30.1 µM
CCRF-CEM leukemia
  TGI: 6.87 µM
NCI-H522 lung
  TGI: 0.282 µM
RPMI-8226 leukemia
  TGI: 1.43 µM
MOLT-4 leukemia
  TGI: 3.44 µM
786-0 renal
  TGI: 7.95 µM
UO-31 renal
  TGI: 14.4 µM
SW-620 colon
  TGI: 20.4 µM
HCT-116 colon
  TGI: 11.6 µM
SNB-78 CNS
  TGI: 4.65 µM
M19-MEL melanoma
  TGI: 16 µM
MALME-3M melanoma
  TGI: 22.9 µM
SNB-19 CNS
  TGI: 11.9 µM
UACC-257 melanoma
  TGI: 35.1 µM
A498 renal
  TGI: 18 µM
ACHN renal
  TGI: 31.9 µM
A549 NSCLC
  TGI: 29.9 µM
OVCAR-8 ovarian
  TGI: 54.1 µM
LXFL 529 NSCLC
  TGI: 24.6 µM
RXF 393 renal
  TGI: 4.65 µM
M14 melanoma
  TGI: 17.8 µM
SF-295 CNS
  TGI: 1.86 µM
OVCAR-5 ovarian
  TGI: 33.3 µM
LOX IMVI melanoma
  TGI: 51.7 µM
KM20L2 colon
  TGI: 1.52 µM
HCC-2998 colon
  TGI: > 100 µM
HT29 colon
  TGI: 17.2 µM
HOP-62 NSCLC
  TGI: > 100 µM
UACC-62 melanoma
  TGI: 16.2 µM
K-562 leukemia
  TGI: 6.28 µM
SF-268 CNS
  TGI: 28.8 µM
U251 CNS
  TGI: 86.1 µM
SK-OV-3 ovarian
  TGI: 7.34 µM
SN12C renal
  TGI: 24.5 µM
OVCAR-4 ovarian
  TGI: 45.9 µM
EKVX NSCLC
  TGI: 18 µM
SK-MEL-28 melanoma
  TGI: 0.959 µM
COLO 205 colon
  TGI: 4.44 µM
SF-539 CNS
  TGI: 0.821 µM
DLD-1 colon
  TGI: 30.9 µM
HCT-15 colon
  TGI: 24.8 µM
XF 498 CNS
  TGI: 15.3 µM
HOP-92 NSCLC
  TGI: 21.3 µM
NCI-H23 lung
  TGI: 8.49 µM
NCI-H460 lung
  TGI: 43.5 µM
TK-10 renal
  TGI: 26.8 µM
SK-MEL-2 melanoma
  TGI: 0.649 µM
KM12 colon
  TGI: 15.9 µM
DMS 114 small cell lung
  TGI: 4.28 µM
SK-MEL-5 melanoma
  TGI: 12 µM
HOP-18 NSCLC
  TGI: 47.5 µM
DMS 273 small cell lung
  TGI: 12.2 µM
IGROV1 ovarian
  TGI: 14.9 µM
OVCAR-3 ovarian
  TGI: 1.3 µM
SNB-75 CNS
  TGI: 0.952 µM

## CCCCCCCCCc1cc(=O)c2ccc(OCc3ccccc3)cc2o1
CAKI-1 renal
  TGI: 13.4 µM
CCRF-CEM leukemia
  TGI: > 100 µM
NCI-H522 lung
  TGI: > 100 µM
786-0 renal
  TGI: > 100 µM
UO-31 renal
  TGI: > 100 µM
SW-620 colon
  TGI: > 100 µM
HCT-116 colon
  TGI: > 100 µM
SNB-78 CNS
  TGI: > 100 µM
M19-MEL melanoma
  TGI: > 100 µM
MALME-3M melanoma
  TGI: > 100 µM
SNB-19 CNS
  TGI: > 100 µM
UACC-257 melanoma
  TGI: > 100 µM
ACHN renal
  TGI: > 100 µM
A549 NSCLC
  TGI: > 100 µM
OVCAR-8 ovarian
  TGI: > 100 µM
LXFL 529 NSCLC
  TGI: > 100 µM
RXF 393 renal
  TGI: > 100 µM
NCI-H226 lung
  TGI: > 100 µM
M14 melanoma
  TGI: > 100 µM
SF-295 CNS
  TGI: > 100 µM
OVCAR-5 ovarian
  TGI: > 100 µM
LOX IMVI melanoma
  TGI: > 100 µM
KM20L2 colon
  TGI: > 100 µM
HCC-2998 colon
  TGI: > 100 µM
HT29 colon
  TGI: > 100 µM
HOP-62 NSCLC
  TGI: > 100 µM
UACC-62 melanoma
  TGI: > 100 µM
K-562 leukemia
  TGI: > 100 µM
SF-268 CNS
  TGI: > 100 µM
U251 CNS
  TGI: > 100 µM
SK-OV-3 ovarian
  TGI: > 100 µM
SN12C renal
  TGI: > 100 µM
OVCAR-4 ovarian
  TGI: > 100 µM
EKVX NSCLC
  TGI: > 100 µM
SK-MEL-28 melanoma
  TGI: > 100 µM
COLO 205 colon
  TGI: > 100 µM
SF-539 CNS
  TGI: > 100 µM
DLD-1 colon
  TGI: > 100 µM
HCT-15 colon
  TGI: > 100 µM
XF 498 CNS
  TGI: > 100 µM
HOP-92 NSCLC
  TGI: > 100 µM
NCI-H23 lung
  TGI: > 100 µM
NCI-H460 lung
  TGI: > 100 µM
TK-10 renal
  TGI: > 100 µM
SK-MEL-2 melanoma
  TGI: > 100 µM
KM12 colon
  TGI: > 100 µM
DMS 114 small cell lung
  TGI: > 100 µM
SK-MEL-5 melanoma
  TGI: > 100 µM
HOP-18 NSCLC
  TGI: > 100 µM
DMS 273 small cell lung
  TGI: > 100 µM
IGROV1 ovarian
  TGI: > 100 µM
OVCAR-3 ovarian
  TGI: > 100 µM
HL-60(TB) leukemia
  TGI: 46.4 µM
SNB-75 CNS
  TGI: 72.3 µM
